Test results as given in patent publication US5922677A, “Therapeutic method and compounds of use therein” (Auckland UniServices Limited, priority 1994, dated 1999).
Structures can show the parent of a compound that is named as a salt. No end group written: not given here.

How the values were obtained:
[1] = tested on: osteoblast-like cells from fetal rat calvariae; assay: Numbers of osteoblast-like cells in culture; assay type: cell-based; conditions: for effect on cell number (osteoblast proliferation): growth-arrested cultures, 24 hours
Source text: Cells were either (a) growth-arrested as a result of being cultured in the presence of 0.1% bovine serum albumin or (b) were actively growing in culture medium containing 2% fetal calf serum. n=6 in each group. Data are mean ± sem. Statistical significance (by Student's test) of differences from control: *p≤0.05; **p<0.005; ***p<0.001.

[2] = tested on: osteoblast-like cells from fetal rat calvariae; assay: Numbers of osteoblast-like cells in culture; assay type: cell-based; conditions: for Osteoblast Numbers after 24 h culture: mean ± SD
calvariae of adult mice = assay: In vivo calvarial study, local injection over hemicalvaria, histomorphometry; conditions: 4.1×10^-9 mol daily for 5 days over right hemicalvaria
Source text: FIG. 4 Comparison of the in vivo effects of rat amylin, rat calcitonin (CT) and rat CGRP in adult mice. The daily dose of each peptide was 4.1×10^-9 mol. Data are expressed as the ratio of each index measured in the injected hemicalvaria to that measured in the contralateral, uninjected hemicalvaria. n=5 in each group. Data are mean ± sem. Significant differences (p<0.05) between the injected and uninjected hemicalvariae are indicated by asterisks.
The effects of the peptides on bone histology in vivo were assessed by subcutaneously injecting the peptide daily for 5 days over the periosteum of the right hemicalvaria of adult, male Swiss-Webster mice. The animals were sacrificed 1 week following the last injection. Non-decalcified sections of the calvariae were prepared as described previously, Cornish, J., Callon, K., King, A., Edgar, S., and Reid, I. R. (1993) Endocrinology 132, 1359-1366. Quantitative histomorphometry was performed by an operator blinded to the treatment each animal had received. Data are expressed as the ratio of each index measured in the injected hemicalvaria to that measured in the contralateral, uninjected hemicalvaria of the same animal and have been evaluated by paired t tests.

[3] = tested on: osteoblast-like cells from fetal rat calvariae; assay: Thymidine incorporation into osteoblast-like cells; assay type: cell-based; conditions: time-course (FIG. 3), medium with 0.1% bovine serum albumin
Experimental: FIG. 3 The effect of rat amylin on thymidine incorporation into osteoblast-like cells from fetal rat calvariae. Statistical significance of differences from control at each time-point: *p=0.002; **p<0.001. In both experiments the culture medium contained 0.1% bovine serum albumin. n=6 in each group. Data are mean ± sem.
Osteoblast-like cells were prepared by sequential collagenase digestion of calvariae from 20 day fetal rats, as described previously, Lowe, C., Cornish, J., Callon, K, Martin, T. J., and Reid, I. R. (1991) J. Bone Miner. Res. 6, 1277-1283.

mouse calvaria = assay: Systemic in vivo experiment, calvarial histomorphometry; design: species or system mice
Experimental: We have also conducted the following systemic in vivo experiment where amylin at a concentration of 10^-8 M is injected subcutaneously.
Calvarial Histomorphometry
11 mice in each treatment group.
Differences between control and amylin groups were statistically tested using an unpaired Student t test.
Measurements are recorded per mm calvarial length.

[4] = injected vs uninjected hemicalvaria
[5] = systemic test, summary in words

In the case of `O=C(O)C(F)(F)F` [TFA, trifluoroacetic acid], the cell numbers ([1]; 4×10^-8 M, exposed for 24 hrs, control 5.6±0.3×10^4) is reported as 4.2±0.3×10^4.
In the case of “Amylin, TFA Salt: amylin as trifluoroacetic acid salt, generally the tetra-TFA salt, as isolated by HPLC (KCNTATCATQRLANFLVHSSNNFGAILSSTNVGSNTY; not fully specified (C-terminus, bridges); cysteine pairing not given here; also: trifluoroacetate salt; UniProt P10997 34-70, looked up)”, the “Osteoblast Numbers after 24 h culture” value ([2]; 10^-8 M, control 4.6 ± 0.64) is reported as 5.6 ± 0.96 10^4 cells/well.
“Amylin, chloride salt: amylin salt prepared by dissolving peptide in 3 mM hydrochloric acid and freeze-drying (KCNTATCATQRLANFLVHSSNNFGAILSSTNVGSNTY; not fully specified (C-terminus, bridges); cysteine pairing not given here; also: chloride salt; UniProt P10997 34-70, looked up)” was tested, and the “Osteoblast Numbers after 24 h culture” value ([2]; 10^-8 M, control 4.6 ± 0.64) was 7.9 ± 1.00 10^4 cells/well.
For “CGRP: rat calcitonin gene-related peptide-1, a peptide related to amylin (SCNTATCVTHRLAGLLSRSGGVVKDNFVPTNVGSEAF; not fully specified (C-terminus, bridges); cysteine pairing not given here; UniProt P01256 83-119, looked up)”, the “effect on cell number (osteoblast proliferation)” value (“effect on cell number” for short) ([1]; dose-response (FIG. 1a)) was “increased osteoblast proliferation, but the effect was smaller and only significant at 10^-8 M”.
With “Rat calcitonin: rat calcitonin peptide, comparator (CGNLSTCMLGTYTQDLNKFHTFPQTSIGVGAP; ends and bridges not checked; cysteine pairing not given here; UniProt P01257 85-116, looked up) [reference compound]” the “effect on cell number” value ([1]; 10^-9 -10^-7 M) was “without effect”, the eroded surface (calvariae of adult mice) was “reduced eroded surface to a similar extent to amylin” and the “mineralized bone area increase” value (calvariae of adult mice; non-significant) was 4%.
“amylin: 37-amino acid peptide cosecreted with insulin from pancreatic beta cells; species not printed at place (rat amylin per FIG. 1-4 legends)” was tested, and the “stimulation of osteoblast proliferation” value ([1]; actively growing cells (2% fetal calf serum, FIG. 1b)) was “also observed in actively growing cells”, the “effect on cell number” value ([1]; dose-response (FIG. 1a)) was “substantial, dose-related increase in cell number” and the “DNA synthesis assessed by thymidine incorporation” value [3] was “sustained increase in DNA synthesis”. The bone resorption (calvariae of adult mice; [4]) was “decreases in bone resorption of comparable magnitude”, the “indices of bone formation” value (calvariae of adult mice; [4]) was “two- to three-fold increases” and the “indices of bone formation compared to control” value (mouse calvaria; [5]) was “significant increases in all indices of bone formation”. The “indices of bone resorption compared to control” value (mouse calvaria; [5]) was “significant decreases in indices of bone resorption”, the osteoid area (mouse calvaria; systemic, subcutaneous, 10^-8 M, mean, per mm calvarial length, control 0.0005) was 0.0018 mm^2 and the osteoclast surface (mouse calvaria; systemic, subcutaneous, 10^-8 M, mean, per mm calvarial length, control 0.094) was 0.019 mm. For the same molecule, the eroded surface (mouse calvaria; systemic, subcutaneous, 10^-8 M, mean, per mm calvarial length, control 0.294) was 0.081 mm, the osteoblast surface (mouse calvaria; systemic, subcutaneous, 10^-8 M, mean, per mm calvarial length, control 0.85) was 1.76 mm and the osteoclast number (mouse calvaria; systemic, subcutaneous, 10^-8 M, mean, per mm calvarial length, control 3.6) was 1.2. The osteoblast number (mouse calvaria; systemic, subcutaneous, 10^-8 M, mean, per mm calvarial length, control 73.6) was 147.5 and the “cell number over time” value ([2]; time-course 6 to 48 hours (FIG. 2)) was “increased in amylin-treated cells from 6 to 48 hours”.
For parathyroid hormone, the reduced cell numbers ([1]; 10^-8 M, at 24 hours) was 18%.
With “rat amylin: rat form of the 37-amino acid peptide amylin (KCNTATCATQRLANFLVRSSNNLGPVLPPTNVGSNTY; not fully specified (C-terminus, bridges); cysteine pairing not given here; UniProt P12969 38-74, looked up)” the “Osteoblast Numbers after 24 h culture” value ([2]; 10^-9 M, control 4.2 ± 0.6) was 5.9 ± 0.8 x10^4 cells/well.
With salmon calcitonin the “effect on cell number” value ([1]; 10^-7 M) was “without effect”.
